Results taken from BindingDB's records for doi:10.1016/s0960-894x(99)00005-0 (Smithkline Beecham Pharmaceuticals, 1999).

Experiment: Inhibitory activity against varicella zoster virus (VZV) protease

Question: For `Cc1csc2nc([C@H](C)NC(=O)/C=C/C(=O)c3ccccc3[N+](=O)[O-])oc(=O)c12` [(E)-4-(2-Nitro-phenyl)-4-oxo-but-2-enoic acid [(S)-1-(5-methyl-4-oxo-4H-thieno[2,3-d][1,3]oxazin-2-yl)-ethyl]-amide], which IC50 is on record?
Answer: 840 nM

Question: For `Cc1csc2nc([C@H](C)NC(=O)/C=C/C(=O)c3cccc(C#N)c3)oc(=O)c12` [(E)-4-(3-Cyano-phenyl)-4-oxo-but-2-enoic acid [(S)-1-(5-methyl-4-oxo-4H-thieno[2,3-d][1,3]oxazin-2-yl)-ethyl]-amide], which IC50 is on record?
Answer: 410 nM

Question: With `COc1cccc(C(=O)/C=C/C(=O)N[C@@H](C)c2nc3scc(C)c3c(=O)o2)c1` [(E)-4-(3-Methoxy-phenyl)-4-oxo-but-2-enoic acid [(S)-1-(5-methyl-4-oxo-4H-thieno[2,3-d][1,3]oxazin-2-yl)-ethyl]-amide] as the compound, how does the IC50 read?
Answer: 340 nM

Question: With `CCOc1ccc(C(=O)/C=C/C(=O)N[C@@H](C)c2nc3scc(C)c3c(=O)o2)cc1` [(E)-4-(4-Ethoxy-phenyl)-4-oxo-but-2-enoic acid [(S)-1-(5-methyl-4-oxo-4H-thieno[2,3-d][1,3]oxazin-2-yl)-ethyl]-amide] as the compound, how does the IC50 read?
Answer: 1600 nM

Question: With `Cc1csc2nc([C@H](C)NC(=O)/C=C/C(=O)c3cccs3)oc(=O)c12` [(E)-4-Oxo-4-thiophen-2-yl-but-2-enoic acid [(S)-1-(5-methyl-4-oxo-4H-thieno[2,3-d][1,3]oxazin-2-yl)-ethyl]-amide] as the compound, how does the IC50 read?
Answer: 650 nM

Question: For `CC(=O)C=CC(=O)N[C@@H](C)c1nc2scc(C)c2c(=O)o1` [(E)-4-Oxo-pent-2-enoic acid [(S)-1-(5-methyl-4-oxo-4H-thieno[2,3-d][1,3]oxazin-2-yl)-ethyl]-amide], which IC50 is on record?
Answer: 1360 nM

Question: For `Cc1csc2nc([C@H](C)NC(=O)CCC(=O)c3cccs3)oc(=O)c12` [N-[(S)-1-(5-Methyl-4-oxo-4H-thieno[2,3-d][1,3]oxazin-2-yl)-ethyl]-4-oxo-4-thiophen-2-yl-butyramide], which IC50 is on record?
Answer: 820 nM
